Experimental data taken from patent US20250145595A1, “ANTAGONISTS OF THE MUSCARINIC ACETYLCHOLINE RECEPTOR M4” (Vanderbilt University, priority 2021, published 2025).

Tests used:
[1] = molecular target: T1, Human M4 (Homo sapiens, UniProt P08173); assay: mAChR M4 cell-based functional assay (calcium flux, antagonism of EC80 acetylcholine response, M4/Gqi5/CHO-K1 cells); conditions: % ACh maximum at 30 μM
T1 construct: expressed in transfected cells; host or cells: CHO-K1 (ATCC), stably co-transfected with Gqi5
T1 sequence (P08173 1-479): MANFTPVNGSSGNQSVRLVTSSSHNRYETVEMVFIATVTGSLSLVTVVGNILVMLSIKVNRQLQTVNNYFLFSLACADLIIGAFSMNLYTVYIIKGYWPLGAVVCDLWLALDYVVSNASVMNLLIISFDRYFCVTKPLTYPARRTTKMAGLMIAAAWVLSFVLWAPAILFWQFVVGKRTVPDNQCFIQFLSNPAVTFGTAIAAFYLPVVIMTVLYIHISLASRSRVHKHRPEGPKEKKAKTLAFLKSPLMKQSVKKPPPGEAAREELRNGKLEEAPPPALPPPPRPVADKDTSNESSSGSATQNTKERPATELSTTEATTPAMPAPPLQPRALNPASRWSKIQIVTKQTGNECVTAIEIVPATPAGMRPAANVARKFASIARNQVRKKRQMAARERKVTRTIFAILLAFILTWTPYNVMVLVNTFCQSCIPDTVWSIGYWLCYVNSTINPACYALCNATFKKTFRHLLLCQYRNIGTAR
Method: Human or rat M4 cDNA, along with the chimeric G protein Gqi5, were transfected into Chinese hamster ovary (CHO-K1) cells purchased from the American Type Culture Collection using Lipofectamine2000. M4/Gqi5/CHO cells were grown in Ham's F-12 medium containing 10% heat-inactivated fetal bovine serum (FBS), 20 mM HEPES, 500 μg/mL G418 sulfate, and 200 μg/mL Hygromycin B.
For high throughput measurement of agonist-evoked increases in intracellular calcium, CHO-K1 cells stably expressing muscarinic receptors were plated in growth medium lacking G^418 and hygromycin at 15,000 cells/20 μL/well in Greiner 384-well black-walled, tissue culture (TC)-treated, clear-bottom plates (VWR). Cells were incubated overnight at 37° C. and 5% CO2. The next day, cells were washed using an ELX 405 (BioTek) with assay buffer; the final volume was then aspirated to 20 μL. Next, 20 μL of a […] of Fluo-4/acetoxymethyl ester (Invitrogen, Carlsbad, CA), prepared as a 2.3 mM stock in DMSO and mixed in a 1:1 ratio with 10% (w/v) Pluronic F-127 and diluted in assay buffer, was added to the wells and the cell plates were incubated for 50 min at 37° C. and 5% CO2. Dye was removed by washing with the ELX 405 and the final volume was aspirated to 20 μL. Compound master plates were formatted in a 10-point concentration-response curve (CRC) format (1:3 dilutions) in 100% DMSO with a starting concentration of 10 or 1 mM using a BRAVO liquid handler (Agilent). Test compound CRCs were then transferred to daughter plates (240 nL) using the Echo acoustic plate reformatter (Labcyte, Sunnyvale, CA) and then diluted into assay buffer (40 μL) to a 2× stock using a Thermo Fisher Combi (Thermo Fisher Scientific, Waltham, MA).
Calcium flux was measured using the Functional Drug Screening System (FDSS) 6000 or 7000 (Hamamatsu Corporation, Tokyo, Japan) as an increase in the fluorescent static ratio. Compounds were applied to cells (20 μL, 2×) using the automated system of the FDSS at 2 seconds into the protocol and the data were collected at 1 Hz. At 143 s, 10 μL of an EC20 concentration of the muscarinic receptor agonist acetylcholine was added (5×), followed by the addition of 12 μL of an EC80 concentration of acetylcholine at the 268 s time point (5×). Agonist activity was analyzed as a concentration-dependent increase in calcium mobilization upon compound addition. Positive allosteric modulator activity was analyzed as a concentration-dependent increase in the EC20 acetylcholine response. Antagonist activity was analyzed as a concentration-dependent decrease in the EC80 acetylcholine response; for the purposes of the tables herein, an IC50 (inhibitory concentration 50) was calculated as a concentration-dependent decrease of the response elicited by an EC80 concentration of acetylcholine. Concentration-response curves were generated using a four-parameter logistical equation in XLFit curve fitting software (IDBS, Bridgewater, NJ) for Excel (Microsoft, Redmond, WA) or Prism (GraphPad Software, Inc., San Diego, CA) or the Dotmatics software platform (Dotmatics, Bishop's Stortford, UK).
Compounds were synthesized as described above. Activity (IC50 and Emin) was determined in the mAChR M4 cell-based functional assay as described above and the data are shown in Table 2.

[2] = molecular target: T2, Human M1 (Homo sapiens, UniProt P11229); assay: mAChR M1 cell-based functional assay (calcium flux, antagonism of EC80 acetylcholine response, hM1 CHO-K1 cells); conditions: compound 61 versus compound 62, data of Table 3
T2 sequence (P11229 1-460): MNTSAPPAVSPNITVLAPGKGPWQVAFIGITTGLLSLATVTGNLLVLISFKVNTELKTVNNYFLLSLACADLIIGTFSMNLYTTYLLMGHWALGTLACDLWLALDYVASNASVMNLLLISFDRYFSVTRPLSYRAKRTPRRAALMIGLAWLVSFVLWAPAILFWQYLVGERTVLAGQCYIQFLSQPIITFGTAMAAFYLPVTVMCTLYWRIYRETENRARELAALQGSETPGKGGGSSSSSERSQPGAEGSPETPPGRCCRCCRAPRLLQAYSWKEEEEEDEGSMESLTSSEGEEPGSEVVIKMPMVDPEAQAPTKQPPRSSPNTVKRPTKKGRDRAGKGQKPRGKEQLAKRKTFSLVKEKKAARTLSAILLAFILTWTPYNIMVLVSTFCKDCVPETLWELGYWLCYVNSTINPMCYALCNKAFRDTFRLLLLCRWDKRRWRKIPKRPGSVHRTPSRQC
Method: hM1 cDNA was purchased from Missouri S&T cDNA Resource and used to stably transfect CHO-K1 cells purchased from the American Type Culture Collection using Lipofectamine2000. hM1 cells were grown in Ham's F-12 medium containing 10% heat-inactivated fetal bovine serum (FBS), 20 mM HEPES, and 50 μg/mL G418 sulfate.
For high throughput measurement of agonist-evoked increases in intracellular calcium, CHO-K1 cells stably expressing muscarinic receptors were plated in growth medium lacking G418 and hygromycin at 15,000 cells/20 μL/well in Greiner 384-well black-walled, tissue culture (TC)-treated, clear-bottom plates (VWR). Cells were incubated overnight at 37° C. and 5% CO2. […]
Calcium flux was measured using the Functional Drug Screening System (FDSS) 6000 (Hamamatsu Corporation, Tokyo, Japan) as an increase in the fluorescent static ratio. […] Agonist activity was analyzed as a concentration-dependent increase in calcium mobilization upon compound addition. […] Positive allosteric modulator activity was analyzed as a concentration-dependent increase in the EC20 acetylcholine response. Antagonist activity was analyzed as a concentration-dependent decrease in the EC80 acetylcholine response; for the purposes of the tables herein, an IC50 (inhibitory concentration 50) was calculated as a concentration-dependent decrease of the response elicited by an EC80 concentration of acetylcholine. […]

[3] = tested on: catalepsy induced by the DA receptor antagonist haloperidol; conditions: cited from earlier work

| Compound | Human M4 Emin [1] | further results |
| --- | --- | --- |
| [2H]C([2H])(C1CCOC(C)(C)C1)N1C[C@H]2C[C@H](Nc3ccc(-c4cnccc4C(F)(F)F)nn3)C[C@H]2C1 (single isomer, unassigned) [Compound 58] | 3% | – |
| [2H]C([2H])([C@H]1CCOC(C)(C)C1)N1C[C@H]2C[C@H](Nc3ccc(-c4cccnc4C(F)(F)F)nn3)C[C@H]2C1 [Compound 61, (3aR,5s,6aS)-2-(((S)-2,2-dimethyltetrahydro-2H-pyran-4-yl)methyl-d2)-N-(6-(2-(trifluoromethyl)pyridin-3-yl)pyridazin-3-yl)octahydrocyclopenta[c]pyrrol-5-amine] | – | remaining activity at 30 µM ([1]; CHO-K1, read-out: Human M4 Emin): 8%; human mAChR M1 antagonist activity (comparison in words) [2]: less human mAChR M1 antagonist activity than compound 62 |
| [2H]C([2H])([C@H]1CCCCO1)N1C[C@H]2C[C@H](Nc3ccc(-c4cccnc4C(F)(F)F)nn3)C[C@H]2C1 [Compound 49, (3aR,5s,6aS)-2-(((R)-tetrahydro-2H-pyran-2-yl)methyl-d2)-N-(6-(2-(trifluoromethyl)pyridin-3-yl)pyridazin-3-yl)octahydrocyclopenta[c]pyrrol-5-amine] | 2% | – |
| CN1[C@@H]2C[C@@H](OC(=O)[C@H](CO)c3ccccc3)C[C@H]1[C@@H]1O[C@@H]12 [scopolamine] | – | reduction of haloperidol-induced catalepsy ([3]; M4KO mice): ineffective in reducing catalepsy; reversal of haloperidol-induced catalepsy ([3]; WT mice): completely reversed |
| [2H]C1([2H])CC(C([2H])([2H])N2C[C@H]3C[C@H](Nc4nnc(-c5cnccc5C(F)(F)F)cc4C)C[C@H]3C2)CC([2H])([2H])O1 [Compound 18, (3aR,5s,6aS)-N-(4-methyl-6-(4-(trifluoromethyl)pyridin-3-yl)pyridazin-3-yl)-2-((tetrahydro-2H-pyran-4-yl-2,2,6,6-d4)methyl-d2)octahydrocyclopenta[c]pyrrol-5-amine] | 4% | – |
| [2H]C1([2H])CC(C([2H])([2H])N2C[C@H]3C[C@H](Nc4nnc(-c5cnccc5C(F)(F)F)cc4OC)C[C@H]3C2)CC([2H])([2H])O1 [Compound 22, (3aR,5s,6aS)-N-(4-methoxy-6-(4-(trifluoromethyl)pyridin-3-yl)pyridazin-3-yl)-2-((tetrahydro-2H-pyran-4-yl-2,2,6,6-d4)methyl-d2)octahydrocyclopenta[c]pyrrol-5-amine] | 2% | – |
| [2H]C([2H])([C@@H]1CCCOC1)N1C[C@H]2C[C@H](Nc3ccc(-c4cccnc4C(F)(F)F)nn3)C[C@H]2C1 [Compound 47, (3aR,5s,6aS)-2-(((S)-tetrahydro-2H-pyran-3-yl)methyl-d2)-N-(6-(2-(trifluoromethyl)pyridin-3-yl)pyridazin-3-yl)octahydrocyclopenta[c]pyrrol-5-amine] | 2% | – |
